From PubChem BioAssay AID248 (DTP/NCI, 2004)
Several values for one entry are separate records, joined by “and”; a condition that tells them apart may be missing. Equal values may be shown once. Toxic doses and inconclusive results are not listed. No stated cut-off is given here; in the data, active means T/C of 150% or more; inactive means T/C below 125%.

Test system: L1210 leukemia ip in BDF1 mice, survival T/C
Experiment: NCI In Vivo Anticancer Drug Screen. Data for tumor model L1210 Leukemia (intraperitoneal) in B6D2F1 (BDF1) mice
Settings: endpoint: mean survival time, higher = longer survival
How it was run: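 Mice bearing the transplanted tumor received compound or vehicle. Survival of the treated group was divided by that of the vehicle-treated control group to give the ratio.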

[1] = dose: 100.0 mg/kg/injection, schedule: Q01DX001 (ip), vehicle: carboxymethylcellulose (CMC)
[2] = dose: 200.0 mg/kg/injection, schedule: Q01DX001 (ip), vehicle: carboxymethylcellulose (CMC)
[3] = dose: 400.0 mg/kg/injection, schedule: Q01DX001 (ip), vehicle: carboxymethylcellulose (CMC)
[4] = dose: 100.0 mg/kg/injection, schedule: Q04DX003 (ip), vehicle: Klucel (hydroxypropylcellulose) (HPC)
[5] = dose: 200.0 mg/kg/injection, schedule: Q04DX003 (ip), vehicle: Klucel (hydroxypropylcellulose) (HPC)
[6] = dose: 400.0 mg/kg/injection, schedule: Q04DX003 (ip), vehicle: Klucel (hydroxypropylcellulose) (HPC)
[7] = dose: 75.0 mg/kg/injection, schedule: Q01DX001 (ip), vehicle: carboxymethylcellulose (CMC)
[8] = dose: 150.0 mg/kg/injection, schedule: Q01DX001 (ip), vehicle: carboxymethylcellulose (CMC)
[9] = dose: 100.0 mg/kg/injection, schedule: Q04DX003 (ip), vehicle: saline with Tween-80
[10] = dose: 200.0 mg/kg/injection, schedule: Q04DX003 (ip), vehicle: saline with Tween-80
[11] = dose: 25.0 mg/kg/injection, schedule: Q01DX009 (ip), vehicle: saline
[12] = dose: 25.0 mg/kg/injection, schedule: Q04DX003 (ip), vehicle: saline
[13] = dose: 100.0 mg/kg/injection, schedule: Q04DX003 (ip), vehicle: saline

Measured: T/C

COc1ccc(NC(=O)CSc2cc(Cl)ccc2Cl)cc1
inactive: [1] 102 % of control | [2] 96 % of control | [3] 90 % of control

CCCn1/c(=N\N=O)sc2ccccc21
inactive: [4] 93 % of control | [5] 95 % of control | [6] 92 % of control

O=C1C2(Cl)C3(Cl)C4(Cl)C(Cl)(Cl)C5(Cl)[C@]3(Cl)C1(Cl)[C@]5(Cl)C24Cl (some centres undefined)
inactive: [7] 102 % of control | [8] 96 % of control

C1=CC2C3C=CC(C3)C2C1 (centres undefined)
inactive: dose: 50.0 mg/kg/injection, schedule: Q04DX003 (ip), vehicle: saline with Tween-80 95 % of control | [9] 95 % of control | [10] 93 % of control

CCCCOP(=O)(/C=C/c1ccccc1)OCCCC
inactive: dose: 100.0 mg/kg/injection, schedule: Q04DX002 (ip), vehicle: saline with Tween-80 122 % of control | dose: 200.0 mg/kg/injection, schedule: Q04DX002 (ip), vehicle: saline with Tween-80 91 % of control

O=C(Nc1ccccc1F)Nc1ccccc1Cl
inactive: dose: 25.0 mg/kg/injection, schedule: Q01DX009 (ip), vehicle: Klucel (hydroxypropylcellulose) (HPC) 95 % of control | dose: 50.0 mg/kg/injection, schedule: Q01DX009 (ip), vehicle: Klucel (hydroxypropylcellulose) (HPC) 104 % of control | dose: 100.0 mg/kg/injection, schedule: Q01DX009 (ip), vehicle: Klucel (hydroxypropylcellulose) (HPC) 96 % of control | [4] 87 % of control | dose: 200.0 mg/kg/injection, schedule: Q01DX009 (ip), vehicle: Klucel (hydroxypropylcellulose) (HPC) 93 % of control and 92 % of control | [5] 89 % of control | dose: 400.0 mg/kg/injection, schedule: Q01DX009 (ip), vehicle: Klucel (hydroxypropylcellulose) (HPC) 95 % of control and 91 % of control

COC(=O)CN1C(c2ccccc2)=CS(=O)(=O)C=C1c1ccccc1
inactive: dose: 100.0 mg/kg/injection, schedule: Q01DX001 (ip), vehicle: saline 101 % of control | dose: 200.0 mg/kg/injection, schedule: Q01DX001 (ip), vehicle: saline 97 % of control | dose: 400.0 mg/kg/injection, schedule: Q01DX001 (ip), vehicle: saline 93 % of control

CC(=O)N1Cc2nc(N)nc(N)c2C1
inactive: [1] 95 % of control | [2] 104 % of control | [3] 104 % of control

C#CCN(C)C(C)=O
inactive: [11] 104 % of control | [12] 95 % of control | dose: 50.0 mg/kg/injection, schedule: Q01DX009 (ip), vehicle: saline 102 % of control | dose: 50.0 mg/kg/injection, schedule: Q04DX003 (ip), vehicle: saline 101 % of control | dose: 100.0 mg/kg/injection, schedule: Q01DX009 (ip), vehicle: saline 105 % of control | [13] 96 % of control and 101 % of control

O=[N+]([O-])c1ccc(/C=N/Nc2ccnc3cc(Cl)ccc23)s1
inactive: [13] 96 % of control | dose: 200.0 mg/kg/injection, schedule: Q04DX003 (ip), vehicle: saline 96 % of control | dose: 400.0 mg/kg/injection, schedule: Q04DX003 (ip), vehicle: saline 96 % of control

O=[N+]([O-])c1ccc(OCc2ccc(Cl)c(S(=O)(=O)F)c2)c(Cl)c1
inactive: dose: 100.0 mg/kg/injection, schedule: Q01DX001 (ip), vehicle: gum acacia 102 % of control | dose: 200.0 mg/kg/injection, schedule: Q01DX001 (ip), vehicle: gum acacia 102 % of control | dose: 400.0 mg/kg/injection, schedule: Q01DX001 (ip), vehicle: gum acacia 98 % of control

NC(CO)Cc1ccccc1 (centres undefined)
inactive: dose: 6.25 mg/kg/injection, schedule: Q01DX009 (ip), vehicle: saline 107 % of control | dose: 6.25 mg/kg/injection, schedule: Q04DX003 (ip), vehicle: saline 100 % of control | dose: 12.5 mg/kg/injection, schedule: Q01DX009 (ip), vehicle: saline 96 % of control | dose: 12.5 mg/kg/injection, schedule: Q04DX003 (ip), vehicle: saline 93 % of control | [11] 102 % of control | [12] 105 % of control | dose: 35.0 mg/kg/injection, schedule: Q01DX009 (ip), vehicle: saline 88 % of control | dose: 55.0 mg/kg/injection, schedule: Q01DX009 (ip), vehicle: saline 98 % of control | [7] 86 % of control | dose: 80.0 mg/kg/injection, schedule: Q01DX009 (ip), vehicle: saline 96 % of control and 98 % of control | dose: 120.0 mg/kg/injection, schedule: Q01DX009 (ip), vehicle: saline 103 % of control | [8] 91 % of control | dose: 180.0 mg/kg/injection, schedule: Q01DX009 (ip), vehicle: saline 121 % of control | dose: 300.0 mg/kg/injection, schedule: Q01DX001 (ip), vehicle: carboxymethylcellulose (CMC) 88 % of control

CC[N+](CC)(CC)CCOC(=O)C1C2CC3OC(=O)C1C3C2 (centres undefined)
inactive: [13] 96 % of control

CC(=O)OC(CO)C(NC(=O)N1C(=O)C=CC1=O)NC(=O)N1C(=O)C=CC1=O (centres undefined)
inactive: [1] 95 % of control | [2] 101 % of control | [3] 113 % of control

CCC1(C)CC(=O)NC(=O)C1
inactive: dose: 0.9 mg/kg/injection, schedule: Q01DX009 (ip), vehicle: saline 98 % of control | dose: 1.87 mg/kg/injection, schedule: Q01DX009 (ip), vehicle: saline 108 % of control | dose: 3.75 mg/kg/injection, schedule: Q01DX009 (ip), vehicle: saline 104 % of control | dose: 3.75 mg/kg/injection, schedule: Q04DX003 (ip), vehicle: saline 106 % of control | dose: 5.0 mg/kg/injection, schedule: Q04DX003 (ip), vehicle: saline with Tween-80 101 % of control | dose: 7.5 mg/kg/injection, schedule: Q01DX009 (ip), vehicle: saline 106 % of control | dose: 7.5 mg/kg/injection, schedule: Q04DX003 (ip), vehicle: saline 92 % of control | dose: 10.0 mg/kg/injection, schedule: Q04DX003 (ip), vehicle: saline with Tween-80 97 % of control | dose: 15.0 mg/kg/injection, schedule: Q01DX009 (ip), vehicle: saline 100 % of control | dose: 15.0 mg/kg/injection, schedule: Q04DX003 (ip), vehicle: saline 95 % of control

O=c1[nH]cccc1[N+](=O)[O-]
inactive: dose: 100.0 mg/kg/injection, schedule: Q01DX009 (ip), vehicle: saline with Tween-80 95 % of control | dose: 200.0 mg/kg/injection, schedule: Q01DX009 (ip), vehicle: saline with Tween-80 90 % of control | dose: 400.0 mg/kg/injection, schedule: Q01DX009 (ip), vehicle: saline with Tween-80 95 % of control

Cc1cccc(C(C)(C)C)c1O
inactive: [9] 102 % of control | [10] 91 % of control | dose: 400.0 mg/kg/injection, schedule: Q04DX003 (ip), vehicle: saline with Tween-80 94 % of control

O=C(OC1CCC(c2ccccc2)C1)c1cc([N+](=O)[O-])cc([N+](=O)[O-])c1 (centres undefined)
inactive: dose: 75.0 mg/kg/injection, schedule: Q04DX003 (ip), vehicle: other 96 % of control | dose: 150.0 mg/kg/injection, schedule: Q04DX003 (ip), vehicle: other 92 % of control | dose: 300.0 mg/kg/injection, schedule: Q04DX003 (ip), vehicle: other 87 % of control

Nc1cccc(C(O)c2ccccc2)c1 (centres undefined)
inactive: [4] 90 % of control | [5] 92 % of control | [6] 95 % of control

Cc1cc(=O)[nH]c(N/N=C/c2cc(Cl)ccc2O)n1
inactive: dose: 50.0 mg/kg/injection, schedule: Q01DX009 (ip), vehicle: saline with Tween-80 87 % of control
